The values that follow come from patent EP1621546B1, “Peptide ligands specific to immonoglobulins” (Tecnogen S.p.A., priority 2004, dated 2008).

Experiment [1] has as its system immunoglobulins (IgG, IgE, IgM and IgA) present in human serum. The experiment in a line: Separation and purification of immunoglobulins from raw human serum by affinity chromatography on the resin-immobilized compound (gel electrophoresis and Western blotting of fractions). Format: binding. The settings on record: compound immobilized on Ultralink Biosupport Medium. Here is the method:
(§1) Compound IB (5 mg) prepared according to the preceding Example 1 was dissolved in 5.0 ml of 0.2 M NaHCO3, 0.6 M Na citrate, pH 9.0, and incubated with 130 mg (1 mL) of resin Ultralink Biosupport Medium™ (PIERCE, Rockford, IL, USA), a support for affinity chromatography pre-activated with a function of the azalactone type for direct coupling of peptides and proteins. The suspension was stirred for 12 hours at room temperature and the extent of coupling was monitored by taking samples of the reaction mixture at various times and then analysing by RP-HPLC.
(§2) After 12 hours, approx. 90-95% of the initial peptide had been immobilized covalently on the resin. The derivatized resin was incubated with 0.1 M TRIS, pH 8.5 to block any sites of the resin that are still reactive, and then packed in a glass column 100 x 0.6 mm ID with variable plunger (OMNIFIT™, Cat. No. 006CC-06-10-FF).
To evaluate the capability of Compound I(B) immobilized on resin according to Example 2 to separate and purify immunoglobulins, the column was equilibrated with buffer 25 mM Bis-Tris (Bis(2-hydroxyethyl)amino-tris(hydroxymethyl)methane, Sigma-Aldrich™, Cat. No. B7535), pH 6.5, at a flow rate of 1 mL/min, monitoring the eluent at 280 nm.
Raw human serum (Sigma-Aldrich™, Cat. No. R9133) was filtered, diluted 1:1 (v/v) with the binding buffer, loaded on the column and, after elution of the unbound material, the eluent was changed to acetic acid (AcH, Sigma-Aldrich™, Cat. No. 46928) 0.1 M, pH 3.0, for eluting the adsorbed material.
The material eluted from the column was neutralized with TRIS 1 M, pH 9.0 and characterized by analysis by polyacrylamide gel electrophoresis and Western blotting (WB) on nitrocellulose for identifying the immunoglobulins retained.
(In general: A western blot detects proteins with antibodies after separation by electrophoresis.)

The subject of experiment [2] is IgG, IgE, IgM and IgA immunoglobulins. The experiment is described as follows: Separation and purification of immunoglobulins from raw murine serum by affinity chromatography on the resin-immobilized compound. It counts as binding. The settings on record: compound immobilized on Ultralink Biosupport Medium. Here is the method: as §1, §2
To evaluate the capability of Compound I(B) immobilized on resin according to Example 2 to separate and purify immunoglobulins, the column was equilibrated with buffer 25 mM Bis-Tris (Bis(2-hydroxyethyl)amino-tris(hydroxymethyl)methane, Sigma-Aldrich™, Cat. No. B7535), pH 6.5, at a flow rate of 1 mL/min, monitoring the eluent at 280 nm. […]

For “(NH2-L-Cys-L-Tyr-L-His-L-His)2-L-Lys-L-Gly-OH [Compound I(B)]”, the “retention of the immunoglobulin fraction of the raw serum (electrophoretic analysis)” value in experiment [1] (raw human serum diluted 1:1, binding buffer 25 mM Bis-Tris pH 6.5, elution with acetic acid 0.1 M pH 3.0) is “able to retain the immunoglobulin fraction of the raw serum”. Moreover, the “classes of immunoglobulins retained (WB analysis of the retained material)” value in experiment [1] (raw human serum, Western blotting on nitrocellulose) was “retained all the classes of immunoglobulins (IgG, IgE, IgM and IgA)”. Besides, in experiment [1] (raw human serum, electrophoretic analysis), the “albumin (selectivity of the column)” value is on record as “recovered in the unretained material”. Besides, in experiment [2], the “albumin (selectivity of the column)” value is on record as “recovered in the unretained material”; the “immunoglobulins retained by the column” value was “able to retain the IgG, IgE, IgM and IgA immunoglobulins”.
